Patent publication US5594009A, “Fused pyrrolocarbazoles” (priority 1995, dated 1997)
One block for each compound: values may come before it.

Tests used:
[1] = tested on: human keratinocytes; conditions: cited from earlier work
[2] = tested on: protein kinase C ("PKC"); conditions: cited from earlier work
[3] = tested on: trk tyrosine kinase; conditions: cited from earlier work
[4] = tested on: transcription of IFNα genes; conditions: not associated with the inhibition of protein kinase C; cited from earlier work
[5] = tested on: choline acetyltransferase (ChAT) activity in dissociated rat embryonic spinal cord culture; assay: Spinal Cord ChAT Activity Assay; type: cell-based; conditions: ChAT measured after 48 hours
[6] = tested on: ChAT activity of basal forebrain cultures; assay: Basal Forebrain ChAT Activity Assay; type: cell-based, rat
Method: Fused pyrrolocarbazoles were tested for the ability to increase ChAT activity of basal forebrain cultures.
Methods: The basal forebrain was dissected from rat embryos (day 17 or 18 embryos) and the cells were dissociated with a neutral protease (Dispase™, Collaborative Research). Neurons were plated at a density of 5×10^4 cells/well (1.5×10^5 cells/cm^2) in poly-1-ornithine and laminin coated plates. Cells were cultured in serum-free N2 medium containing 0.05% BSA at 37° C. in a humidified atmosphere, 5% CO2 /95% air. ChAT activity was assessed 5 days after plating by using the ChAT assay as described in Example III(A)(1).

[7] = tested on: chick dorsal root ganglion neurons; assay: DRG Neurite Outgrowth Assay; type: cell-based; conditions: compound concentration 200 nM; 48 hours
Method: Fused pyrrolocarbazoles promoted nerve fiber (i.e., neurite) outgrowth in explant (i.e., primary) cultures of chick dorsal root ganglion neurons. Dorsal root ganglion (i.e., DRG) nerve fiber outgrowth was increased when a fused pyrrolocarbazole was added to cultures at a concentration of 200 nM (Table IV). Control cultures consisted of: 1) no added NGF or fused pyrrolocarbazole ("Control"), or 2) 50 ng/ml NGF, a neurotrophin known to promote neurite extension in DRG cultures ("NGF").
Methods: Dorsal root ganglia were dissected from chick embryos (embryonic day 9) and individual ganglia were plated on poly-1-ornithine and laminin coated plates. A fused pyrrolocarbazole or 50ng/ml NGF was each added to independent cultures after allowing a 1-2 hour cell attachment period. Explants were cultured for 48 hours in serum-free N2 medium supplemented with 0.05% BSA (Bottenstein et al., PNAS USA 76:514-517 (1979)). Cultures were maintained at 37° C. in a humidified atmosphere, 5% CO2 /95% air. Nerve fiber outgrowth was assessed by the density and length of neurites. It should be apparent to those skilled in the art that neurite extension assays are semi-quantitative and involve a visual comparison between control and experimental neuronal cell cultures (Alberts et al., Molecular Biology of the Cell, 2ed. Garland Publishing, Inc., New York (1989).

[8] = target: protein kinase C; assay: PKC Activity Inhibition Assay; type: biochemical
Method: Fused pyrrolocarbazoles inhibited the activity of protein kinase C (Table VI). The protein kinase C assay has been disclosed (Murakata et al., U.S. Pat. No. 4,923,986; Kikkawa et al., J. Biol. Chem. 257:13341-13348 (1982)). The assay was performed with several concentrations of fused pyrrolocarbazoles. The concentration at which protein kinase C was 50% inhibited (IC50) was determined.

[9] = target: trkA tyrosine kinase (Homo sapiens, UniProt P04629); assay: trkA Tyrosine Kinase Activity Inhibition Assay (ELISA); type: biochemical; conditions: 16 μM ATP, 37° C., 15 min; read-out: INHIBITION OF trkA KINASE IC50
Method: These compounds were then tested for the ability to inhibit substrate phosphorylation by the trkA tyrosine kinase.
Plates were washed three times with TBST, followed by two washes with TBS (TBST sans Tween-20). Fused pyrrolocarbazoles were then added at various concentrations to a reaction mixture (50 mM HEPES, pH 7.4, 5 mM MnCl2, 5 mM MgCl2, 140 mM NaCl, 16 μM ATP, and 15 ng trkA in a total volume of 1001 μL.). As a negative control, 100 mM EDTA was included in the reaction solution. The plates were then incubated at 37° C. for 15 min. The detection antibody, monoclonal anti-phosphotyrosine antibody (UBI), was added at a dilution of 1:2000 in TBST, and incubated for 1 hour at 37° C. Plates were then washed three times with TBST, followed by a 1 hour incubation at 37° C. with alkaline phosphatase-labeled goat anti-mouse IgG (1:2000 in TBST (Bio-Rad)). After washing three times with TBST followed by two washes with TBS, a colored product was produced by using NADPH as substrate for alkaline phosphatase, and the coupled reactions of diaphorase and alcohol dehydrogenase (GIBCO-BRL ELISA amplification system). The colored product was read at 490 nm in a microplate reader (Biotek).

[10] = tested on: NT-3 induced ChAT activity of rat basal forebrain cultures; assay: Enhancement of Neurotrophin (NT-3) Activity Assay, ChAT activity in basal forebrain cultures; type: cell-based
Method: Fused pyrrolocarbazoles were tested for the ability to enhance the activity of the neurotrophin NT-3 in basal forebrain cultures. ChAT activity was assayed as a measure of cholinergic neuron function and survival. The concentration of NT-3 (100 ng/ml) used in these experiments increased ChAT activity over control cultures (untreated with NT-3 or a fused pyrrolocarbazole) by 140%.
Methods. Basal forebrain cultures were prepared from embryonic rats (embryonic day 17) and dissociated with the neutral protease Dispase™. Cells were plated at a density of 4×10^5 cells/cm^2 on poly-1-ornithine coated plastic tissue culture plates in a mixture of DMEM and F12 media (50/50 v/v GIBCO) supplemented with 5% horse serum and 0.5% fetal bovine serum. Cells were incubated at 37° C. in a humidified atmosphere of 5% CO2 /95% air for 5 days. ChAT activity was measured as described in Example III(A)(1).
Recombinant rat NT-3 was produced by using a recombinant baculovirus expression vector under the control of the polyhedron virus promoter (Fraser, In Vitro Cell. and Dev. Biol. 25:225-235 (1989)). The plasmid pXM-NT3 (Hallbook et al., Neuron 6:845-858 (1991), which contained the rat NT-3 cDNA clone, was provided by Dr. Ira Black (University of Medicine and Dentistry of New Jersey, Piscataway, N.J.). NT-3 cDNA was subcloned into the transfer vector pVL1392 (In Vitrogen Corp., San Diego, Calif.) for recombinant virus production. Recombinant baculovirus was produced as described in Meyer et al. (Meyer at al., J. Neurochem 62:825-833 (1994)).

[11] = tested on: indoleamine 2,3-dioxygenase (IDO) mRNA in THP-1 cells; assay: Inhibition of Induction By IFNγ of IDO mRNA; type: cell-based; conditions: Homo sapiens, compound 200 nM, IFNγ 200 units/ml, IDO/GAPD mRNA ratio, 48 hours, read-out: IDO mRNA, Phosphorimager units, % of IFNγ-treated cells
Method: Fused pyrrolocarbazoles in accordance with our invention were tested for their ability to inhibit the induction by IFNγ of indoleamine 2,3-dioxygenase (IDO) mRNA in THP-1 cells, a human monocyte cell line.
Cell Culture: THP-1 cells (American Type Culture Collection, Rockville, Md.), a human monocytic leukemia cell line, were grown in RPMI 1640 medium (Mediatech, Herndon Valley, Va.) with 50 μM 2-mercaptoethanol and 10% fetal bovine serum. Cells were plated in T75 culture flasks, at 4×10^4 cells/cm^2 in 10 ml of medium, and were immediately treated with fused pyrrolocarbazoles at various concentrations. After 30 minutes recombinant (E. coli) IFNγ (Boehringer Mannheim Corporation,Indianapolis, Ind.) was added at 200-400 units/ml. Cells were incubated (37° C., 5% CO2 /95% Air) for 48 hours after treatment.
RNA Isolation: Cells were pelleted by centrifugation (50× g, 7 min.) and medium was decanted. The cells were then washed two times with phosphate buffered saline pH 7.2 (PBS) (Mediatech, Herndon Valley, Va.). The washed cell pellet was lysed in 2 ml RNAzol B (Tel-Test, Inc., Friendswood, Tex.). RNA was isolated by chloroform extraction, precipitated, and washed following the "RNAzol B isolation of RNA" protocol accompanying this product. RNA was then solubilized in H2 O, and the concentration and purity were determined by reading the absorbance at A260 nm and A280 nm. Finally, the RNA was reprecipitated in ethanol, overnight at -20° C.
cDNA Probes: Indoleamine 2,3-dioxygenase (IDO) cDNA was received from Sohan L. Gupta, Ph. D. (Hipple Cancer Research Center, Dayton, Ohio) (see Da., W. & Gupta, S. L. 168 Biochem. Biophys. Res. Commun. 1, 1990 and Hassanain, H. H. et al. 268 J. Biol. Chem. 5077, 1993). Glyceraldehyde-3-phosphate dehydrogenase (GAPD) cDNA was obtained through American Type Culture Collection (Rockville, Md.). These cDNA's were produced and purified using standard methods (see, Sambrook, Fritsch, Maniatis (1989) Molecular Cloning a Laboratory Manual/Second Edition 1, 1.21-1.24, 1.74-1.81, hereinafter in this Example, "Maniatis a") using Qiagen plasmid purification kits (Qiagen Inc., Chatsworth, Calif.). DNA concentration and purity were determined by absorbance at 280 nm and 260 nm. Specific DNA inserts were cut out by standard methods using restriction enzymes, and subsequently separated on agarose gels as in Maniatis (see, Sambrook, Fritsch, Maniatis (1989) Molecular Cloning a Laboratory Manual/Second Edition 1, 6.9-6.15, hereinafter in this Example, "Maniatis b"). cDNA probes were further purified for [^32 P] labeling using the Geneclean II DNA purification kit (BIO 101, Inc., La Jolla, Calif.). Probes were labeled with dCTP-α-^32 P (Amersham Corp., Arlington Heights, Ill.) by random primer labeling, using the Prime-a-GeneLabeling System (Promega Corp., Madison, Wis.).
Analysis and quantification of mRNA: IDO mRNA was detected by Northern blot analysis (see Maniatis a, p. 7.39-7.51) using standard methods. […] Quantification of IDO mRNA was carried out using a phosphorimager (Molecular Dynamics) in which density (i.e., amount of RNA) is expressed as relative phosphorimager units. […] GAPD mRNA measurement by phosphorimager quantification of Northern blots serves as a means to normalize for potential sample to sample differences in the amount of total RNA loaded on gels. […]

[12] = tested on: AT-2 cells; assay: Inhibition of Growth of Prostate Cancer Cell Line (MTS assay); type: cell-based; conditions: 72 h; 3 days, MTS; read-out: AT-2 cell growth IC50
Method: AT-2 cells are a prostate cancer cell sub-line derived from the Dunning H tumor, graciously provided to us by Dr. John Isaacs (John Hopkins, M. D.). Unlike the Dunning H tumor cells, AT-2 cells can be grown in vitro.
Methods: At-2 cells ([…]) were plated on tissue culture plastic in 96-well plates in the presence of RPMI-1640 medium containing 10% fetal calf serum, 250 nM dexamethasone, 2 mM glutamine, 1 mM sodium pyruvate, and penicillin/streptomycin antibiotics. The next day, compounds were added at 4 concentrations (10, 1, 0.1, 0.01 μM) to determine the approximate IC50 range. Cultures were assayed 3 days later for cell number using the MTS [(3-(4,5-dimethylthiazol-2-yl)-5-(3-carboxymethoxyphenyl)-2-(4-sulfophenyl)-2H-tetrazolium, inner salt)] assay. The MTS assay (purchased as a kit from Promega) measures the formation of an aqueous soluble formazan (detected by a plate reader at 490nm) produced by the bioreduction of a tetrazolium compound (MTS) in metabolically active cells via mitochondrial succinate dehydrogenase. After determining linearity of the substrate incubation time over a range of cell plating densities, the amount of product measured is directly proportional to cell number. MTS (333 ug/ml) and 25 μM phenazine methosulfate are mixed and added directly to the culture medium, and incubated at 37° C. in the 5% CO2 /95% air incubator for 0.5-4 h. Absorbance of the product at 490 nm is read on the BIO-TEK plate reader. Background values were obtained from wells containing culture medium with substrate solution, but no cells. In addition, values were also obtained from wells containing cells plated at day 0 and assayed on the day compound was added (day 1) in order to determine the number of cells at the time compound was added. After the initial dose-finding experiment was completed, subsequent experiments were set up so that there were 3 or more concentrations near the predicted IC50.

trkA tyrosine kinase, sequence (P04629 33-796): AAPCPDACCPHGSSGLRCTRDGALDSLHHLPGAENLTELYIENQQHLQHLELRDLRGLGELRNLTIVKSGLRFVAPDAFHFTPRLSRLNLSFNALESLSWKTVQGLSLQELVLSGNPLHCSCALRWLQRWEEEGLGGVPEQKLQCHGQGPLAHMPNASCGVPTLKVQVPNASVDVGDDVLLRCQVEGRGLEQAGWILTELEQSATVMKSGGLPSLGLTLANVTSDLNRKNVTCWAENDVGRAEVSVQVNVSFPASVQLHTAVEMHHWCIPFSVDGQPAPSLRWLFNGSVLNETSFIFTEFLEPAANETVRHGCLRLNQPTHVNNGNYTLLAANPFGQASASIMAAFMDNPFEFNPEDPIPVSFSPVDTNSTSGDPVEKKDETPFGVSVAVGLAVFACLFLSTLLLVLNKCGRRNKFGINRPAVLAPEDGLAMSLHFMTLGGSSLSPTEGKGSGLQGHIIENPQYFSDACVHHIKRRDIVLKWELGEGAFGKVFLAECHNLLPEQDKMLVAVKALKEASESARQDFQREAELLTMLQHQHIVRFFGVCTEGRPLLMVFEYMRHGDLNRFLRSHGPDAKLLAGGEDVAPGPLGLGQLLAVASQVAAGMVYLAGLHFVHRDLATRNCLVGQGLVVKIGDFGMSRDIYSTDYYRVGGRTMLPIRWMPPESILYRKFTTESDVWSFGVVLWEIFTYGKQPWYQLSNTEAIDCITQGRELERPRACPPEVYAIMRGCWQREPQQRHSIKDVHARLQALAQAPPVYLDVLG

Compound: COC(=O)[C@@]1(O)C[C@H]2O[C@]1(C)n1c3ccccc3c3c4c(c5c6ccccc6n2c5c31)C(=O)NC4 [Compound K-252a]
- NGF-stimulated proliferation of human keratinocytes [1]: prevents such proliferation
- inhibition of protein kinase C [2]: inhibitor
- inhibition of trk tyrosine kinase [3]: inhibitor
- inhibition of transcription of IFNα genes [4]: inhibit the transcription of IFNα genes

- IC50 [8]: 70 nM
- IC50 [9]: > 1000 nM
Compound: O=C1NC(=O)c2c1c1c(c3[nH]c4ccccc4c23)Cc2ccccc2-1 [Compound I-1, 6H, 12H, 13H-Indeno[2,3-a]pyrrolo[3,4-c]carbazole-5,7(5H, 7H))-dione]
- Spinal Cord ChAT Activity, % of Control, untreated cultures [5]: 148 % of Control
- ChAT Activity (% of Control) ([6]; 100 nM): inactive
- ChAT Activity (% of Control) ([6]; 250 nM): inactive
- ChAT Activity (% of Control) ([6]; 500 nM): inactive
- DRG Neurite Outgrowth [7]: modest number of neurites
- ChAT activity in the absence of NT-3 ([10]; compound added alone to basal forebrain neurons, no NT-3): no effect on ChAT activity
- ChAT activity in the presence of NT-3 ([10]; with 100 ng/ml NT-3): enhanced ChAT activity

- IC50 [8]: 40 nM
- IC50 [9]: 18.4 nM
- IC50 [12]: 3260 nM
Compound: O=C1NCc2c1c1c(c3c2c2ccccc2n3CCO)Cc2ccccc2-1 [Compound I-29, 13-(2-Hydroxyethyl)-5H,6H,12H,13H-indeno[2,3-a]pyrrolo[3,4-c]carbazole-7(7H)one]
- Spinal Cord ChAT Activity, % of Control, untreated cultures [5]: 154 % of Control
- activity at 0.1 µM ([6]; Rattus norvegicus, 120 h, 100 nM, read-out: ChAT Activity (% of Control)): 140%
- activity at 0.25 µM ([6]; Rattus norvegicus, 120 h, 250 nM, read-out: ChAT Activity (% of Control)): 189%
- activity at 0.5 µM ([6]; Rattus norvegicus, 120 h, 500 nM, read-out: ChAT Activity (% of Control)): 194%
- activity at 1 µM ([6]; Rattus norvegicus, 120 h, 1000 nM, read-out: ChAT Activity (% of Control)): 210%
- mrna remaining at 0.2 µM [11]: 57%

Compound: NGF: a neurotrophin known to promote neurite extension in DRG cultures
- proliferation of human keratinocytes [1]: stimulates the proliferation of human keratinocytes in culture
